According to patent US4579940A, “14-de(hydroxymethyl)-mycaminosyltylonolide derivatives” (Toyo Jozo Kabushiki Kaisha, priority 1983, dated 1986):
≈ marks a conversion by molar mass, not a printed value. Where two headings read alike, the source gives them in different places.

What was measured:
Type in all cases: cell-based
Strept. faecalis 1501 = assay: minimum inhibitory concentration (MIC), Strept. faecalis 1501; settings: Enterococcus faecalis
Strept. agalactiae 1020 = assay: minimum inhibitory concentration (MIC), Strept. agalactiae 1020; settings: Streptococcus agalactiae
Proteus vulgaris OX19 = assay: minimum inhibitory concentration (MIC), Proteus vulgaris OX19
E. coli NIHJ-JC2 = assay: minimum inhibitory concentration (MIC), E. coli NIHJ-JC2; settings: Escherichia coli, NIHJJC2
[1] = system: Kleb. pneumoniae ATCC10031; assay: minimum inhibitory concentration (MIC), Kleb. pneumoniae ATCC10031; settings: Klebsiella pneumoniae
Staph. aureus ATCC6538P = assay: minimum inhibitory concentration (MIC), Staph. aureus ATCC6538P; settings: Staphylococcus aureus
Staph. aureus MS353 = assay: minimum inhibitory concentration (MIC), Staph. aureus MS353; settings: Staphylococcus aureus
Serratia marcescens = assay: minimum inhibitory concentration (MIC), Serratia marcescens
[2] = system: Staph epidermidis ap-al-l; assay: minimum inhibitory concentration (MIC), Staph epidermidis
Strept. pyogenes N.Y.5 = assay: minimum inhibitory concentration (MIC), Strept. pyogenes N.Y.5; settings: Streptococcus pyogenes
From the text: In Table 1, the abbreviations have the following meanings: […]

Strept. pyogenes 1022 = assay: minimum inhibitory concentration (MIC), Strept. pyogenes 1022*; settings: Streptococcus pyogenes, macrolide-antibiotics resistant
From the text: (§1) In Table 1, the abbreviations have the following meanings:
(§2) The test organisms were macrolide-antibiotics resistant A-group stains (clinical isolates of strains resistant to erythromycin, olenadomycin and 16-membered macrolide antibiotics).

Staph. aureus MS353C36 = assay: minimum inhibitory concentration (MIC), Staph. aureus MS353C36*; settings: Staphylococcus aureus, macrolide-antibiotics resistant
From the text: as §1, §2

[3] = Staph epidermidis ap-al-l, read-out: MIC

## CCC1OC(=O)CC(O)C(C)C(OC2OC(C)C(OC(C)=O)C(N(C)C)C2OC(C)=O)C(CC(OC)OC)CC(C)C(=O)C=CC(C)=CC1CO (stereo not drawn) [A, 2',4'-di-O-acetyl-O-mycaminosyltylonolide dimethylacetal]
Strept. faecalis 1501
  MIC: 0.2 µg/mL (≈ 0.275 µM)
Strept. agalactiae 1020
  MIC: ≤ 0.05 µg/mL
Proteus vulgaris OX19
  MIC: 6.3 µg/mL (≈ 8.66 µM)
E. coli NIHJ-JC2
  MIC: 25 µg/mL (≈ 34.3 µM)
[1]
  MIC: 1.6 µg/mL (≈ 2.2 µM)
Staph. aureus ATCC6538P
  MIC: 0.2 µg/mL (≈ 0.275 µM)
Staph. aureus MS353
  MIC: 0.2 µg/mL (≈ 0.275 µM)
Serratia marcescens
  MIC: 12.5 µg/mL (≈ 17.2 µM)
[2]; [3]
  MIC: 0.1 µg/mL (≈ 0.137 µM)
Strept. pyogenes N.Y.5
  MIC: ≤ 0.05 µg/mL
Strept. pyogenes 1022
  MIC: > 100 µg/mL

## CCC1CC=C(C)C=CC(=O)C(C)CC(CC=O)C(OC2OC(C)C(O)C(N(C)C)C2O)C(C)C(O)CC(=O)O1 (stereo not drawn) [C, 14-de(hydroxymethyl)-O-mycaminosyltylonolide]
Strept. faecalis 1501
  MIC: 0.1 µg/mL (≈ 0.176 µM)
Strept. agalactiae 1020
  MIC: ≤ 0.05 µg/mL
Staph. aureus MS353C36
  MIC: ≤ 0.05 µg/mL
Staph. aureus ATCC6538P
  MIC: ≤ 0.05 µg/mL
Staph. aureus MS353
  MIC: ≤ 0.05 µg/mL
[2]; [3]
  MIC: ≤ 0.05 µg/mL
Strept. pyogenes N.Y.5
  MIC: ≤ 0.05 µg/mL
Strept. pyogenes 1022
  MIC: > 100 µg/mL

## CCC1OC(=O)CC(O)C(C)C(OC2OC(C)CC(N(C)C)C2OC(C)=O)C(CC=O)CC(C)C(=O)C=CC(C)=CC1CO (stereo not drawn) [D, 2'-O-acetyl-4'-deoxy-O-mycaminosyltylonolide]
Strept. faecalis 1501
  MIC: 0.2 µg/mL (≈ 0.321 µM)
Strept. agalactiae 1020
  MIC: ≤ 0.05 µg/mL
Staph. aureus MS353C36
  MIC: 0.2 µg/mL (≈ 0.321 µM)
Staph. aureus ATCC6538P
  MIC: 0.2 µg/mL (≈ 0.321 µM)
Staph. aureus MS353
  MIC: 0.2 µg/mL (≈ 0.321 µM)
[2]; [3]
  MIC: ≤ 0.05 µg/mL
Strept. pyogenes N.Y.5
  MIC: ≤ 0.05 µg/mL
Strept. pyogenes 1022
  MIC: > 100 µg/mL

## CCC1OC(=O)CC(O)C(C)C(OC2OC(C)CC(N(C)C)C2OC(C)=O)C(CC(OC)OC)CC(C)C(=O)C=CC(C)=CC1CO (stereo not drawn) [E, 2'-O-acetyl-4'-deoxy-O-mycaminosyltylonolide dimethylacetal]
Strept. faecalis 1501
  MIC: ≤ 0.05 µg/mL
Strept. agalactiae 1020
  MIC: ≤ 0.05 µg/mL
Staph. aureus MS353C36
  MIC: 0.1 µg/mL (≈ 0.149 µM)
Staph. aureus ATCC6538P
  MIC: 0.1 µg/mL (≈ 0.149 µM)
Staph. aureus MS353
  MIC: 0.1 µg/mL (≈ 0.149 µM)
[2]; [3]
  MIC: ≤ 0.05 µg/mL
Strept. pyogenes N.Y.5
  MIC: ≤ 0.05 µg/mL
Strept. pyogenes 1022
  MIC: > 100 µg/mL

## CC[C@H]1OC(=O)[C@H](C)[C@@H](O[C@H]2C[C@@](C)(OC)[C@@H](O)[C@H](C)O2)[C@H](C)[C@@H](O[C@@H]2O[C@H](C)C[C@H](N(C)C)[C@H]2O)[C@](C)(O)C[C@@H](C)C(=O)[C@H](C)[C@@H](O)[C@]1(C)O [EM, erythromycin, reference compound]
Strept. agalactiae 1020
  MIC: ≤ 0.05 µg/mL
Staph. aureus MS353C36
  MIC: > 100 µg/mL
Staph. aureus ATCC6538P
  MIC: 0.2 µg/mL (≈ 0.273 µM)
Staph. aureus MS353
  MIC: 0.2 µg/mL (≈ 0.273 µM)
[2]
  MIC: 0.1 µg/mL (≈ 0.136 µM)
Strept. pyogenes N.Y.5
  MIC: ≤ 0.05 µg/mL
Strept. pyogenes 1022
  MIC: > 100 µg/mL

## CCC1CC=C(C)C=CC(=O)C(C)CC(CC=O)C(OC2OC(C)CC(N(C)C)C2O)C(C)C(O)CC(=O)O1 (stereo not drawn) [F, 14-de(hydroxymethyl)-4'-deoxy-O-mycaminosyltylonolide]
Strept. faecalis 1501
  MIC: 0.2 µg/mL (≈ 0.363 µM)
Strept. agalactiae 1020
  MIC: ≤ 0.05 µg/mL
Staph. aureus MS353C36
  MIC: 0.2 µg/mL (≈ 0.363 µM)
Staph. aureus ATCC6538P
  MIC: 0.1 µg/mL (≈ 0.181 µM)
Staph. aureus MS353
  MIC: 0.1 µg/mL (≈ 0.181 µM)
[2]; [3]
  MIC: ≤ 0.05 µg/mL
Strept. pyogenes N.Y.5
  MIC: ≤ 0.05 µg/mL
Strept. pyogenes 1022
  MIC: > 100 µg/mL

## CCC1OC(=O)CC(O)C(C)C(OC2OC(C)C(O)C(N(C)C)C2O)C(CC=O)CC(C)C(=O)C=CC(C)=CC1C(=O)OC(C)C (stereo not drawn) [G, 14-isopropyloxycarbonyl-14-de(hydroxymethyl)-O-mycaminosyltylonolide]
Strept. faecalis 1501
  MIC: 0.2 µg/mL (≈ 0.306 µM)
Strept. agalactiae 1020
  MIC: ≤ 0.05 µg/mL
Staph. aureus MS353C36
  MIC: 0.8 µg/mL (≈ 1.22 µM)
Staph. aureus ATCC6538P
  MIC: 0.4 µg/mL (≈ 0.612 µM)
Staph. aureus MS353
  MIC: 0.4 µg/mL (≈ 0.612 µM)
[2]; [3]
  MIC: 0.2 µg/mL (≈ 0.306 µM)
Strept. pyogenes N.Y.5
  MIC: ≤ 0.05 µg/mL
Strept. pyogenes 1022
  MIC: > 100 µg/mL

## CCOC(=O)C1C=C(C)C=CC(=O)C(C)CC(CC=O)C(OC2OC(C)C(O)C(N(C)C)C2O)C(C)C(O)CC(=O)OC1CC (stereo not drawn) [H, 14-ethyloxycarbonyl-14-de(hydroxymethyl)-O-mycaminosyltylonolide]
Strept. faecalis 1501
  MIC: ≤ 0.05 µg/mL
Strept. agalactiae 1020
  MIC: ≤ 0.05 µg/mL
Staph. aureus MS353C36
  MIC: 0.4 µg/mL (≈ 0.625 µM)
Staph. aureus ATCC6538P
  MIC: 0.2 µg/mL (≈ 0.313 µM)
Staph. aureus MS353
  MIC: 0.2 µg/mL (≈ 0.313 µM)
[2]; [3]
  MIC: 0.1 µg/mL (≈ 0.156 µM)
Strept. pyogenes N.Y.5
  MIC: ≤ 0.05 µg/mL
Strept. pyogenes 1022
  MIC: > 100 µg/mL

## CC[C@H]1OC(=O)C[C@@H](O)[C@H](C)[C@@H](O[C@@H]2O[C@H](C)[C@@H](O[C@H]3C[C@@](C)(O)[C@@H](O)[C@H](C)O3)[C@H](N(C)C)[C@H]2O)[C@@H](CC=O)C[C@@H](C)C(=O)/C=C/C(C)=C/[C@@H]1CO[C@@H]1O[C@H](C)[C@@H](O)[C@@H](OC)[C@H]1OC [TS, tylosin, reference compound]
Strept. faecalis 1501
  MIC: 1.6 µg/mL (≈ 1.75 µM)
Strept. agalactiae 1020
  MIC: 0.4 µg/mL (≈ 0.437 µM)
Staph. aureus MS353C36
  MIC: > 100 µg/mL
E. coli NIHJ-JC2
  MIC: > 100 µg/mL
[2]
  MIC: 0.4 µg/mL (≈ 0.437 µM)
Strept. pyogenes 1022
  MIC: > 100 µg/mL
